Laboratory results reported in the NIST ThermoML archive (doi:10.1016/j.jct.2009.07.017).

Assays:
[1] = xn = mol fraction of the nth substance listed; conditions: 101.3 kPa, Liquid, Vibrating tube method
[2] = 298.15 K; 101.33 kPa; Liquid; Vibrating tube method
[3] = refractive index (Na D-line) (dimensionless); conditions: 298.15 K; 101.33 kPa; Liquid; Standard Abbe refractometry

c1ccccc1 [benzene] + CCCCCCCC
[1], x2 = 0
Conditions	mass density [kg/m3]
283.15 K	889.51
298.15 K	873.57

CCOS(=O)(=O)[O-].CC[n+]1cccc(C)c1 [1-ethyl-3-methylpyridinium ethylsulfate]
Conditions	mass density [kg/m3]	refractive index
[2]	1219.61	–
[3]	–	1.50591

CCCCCCCC [octane] + c1ccccc1
mass density [kg/m3], [1]
Conditions	x1 = 0.1024	x1 = 0.2013	x1 = 0.3006	x1 = 0.4234	x1 = 0.5001	x1 = 0.5985	x1 = 0.6982	x1 = 0.7972	x1 = 0.9031	x1 = 1
283.15 K	855.9	828.82	806.11	782.24	769.31	754.84	741.81	730.25	719.42	710.5
298.15 K	840.84	814.43	792.21	768.91	756.54	742.05	729.34	718.02	707.31	698.6

CCCCCCCCC [nonane] + c1ccccc1
mass density [kg/m3], [1]
Conditions	x1 = 0.0982	x1 = 0.1996	x1 = 0.304	x1 = 0.4001	x1 = 0.497	x1 = 0.5995	x1 = 0.6989	x1 = 0.7959	x1 = 0.8928	x1 = 1
283.15 K	856.81	829.82	807.64	790.32	775.74	762.31	751.53	741.95	733.72	725.51
298.15 K	841.94	815.82	794.17	777.31	763.05	750.12	739.44	730.03	721.91	713.99

c1ccccc1 [benzene] + CCCCCCCCC
[1], x2 = 0
Conditions	mass density [kg/m3]
283.15 K	889.51
298.15 K	873.57
